Assay results as given in patent US11505526B2, “Aryl-piperidine derivatives” (Artax Biopharma Inc., priority 2017, dated 2022).
Like-named read-outs stand apart in the source and are kept apart here.

Assays:
CYP1A2 = CYP1A2 (Homo sapiens (Human), UniProt P05177); experiment: CYP inhibition, CYP1A2; type: in vitro ADME; details: microsomes, metabolite acetaminophen
Method: (§1) For each isozyme, microsomes-buffer-substrate mixture (MBS mix) is prepared by premixing appropriate volumes of buffer, microsomes and substrate. MBS mixture (179 μL) is transferred to a 96-well reaction plate. An aliquot (1 μL) is spiked from corresponding wells of Test Item stock solution plate to reaction plate. The reaction plate is pre-incubated for 5 minutes at 37° C. Reaction is initiated by the addition of 20 μL of NADPH solution. Each experiment is performed in duplicate. Reaction plate is incubated for predetermined time at 37° C. and quenched using either 200 μL of acetonitrile (for CYP2C9, CYP2D6, CYP2C19 and CYP3A4) or 200 μL of a mixture of 70:30 1% formic acid:acetonitrile (for CYP1A2).

CYP2C9 = CYP2C9 (Homo sapiens (Human), UniProt P11712); experiment: CYP inhibition, CYP2C9; type: in vitro ADME; details: microsomes, metabolite 4-hydroxy diclofenac
Method: as §1

CYP2C19 = CYP2C19 (Homo sapiens (Human), UniProt P33261); experiment: CYP inhibition, CYP2C19; type: in vitro ADME; details: microsomes, metabolite 4′-hydroxy mephenytoin
Method: as §1

CYP2D6 = CYP2D6 (Homo sapiens (Human), UniProt P10635); experiment: CYP inhibition, CYP2D6; type: in vitro ADME; details: microsomes, metabolite dextrorphan
Method: as §1

CYP3A4 = CYP3A4 (Homo sapiens (Human), UniProt P08684); experiment: CYP inhibition, CYP3A4; type: in vitro ADME; details: footnote not given, CYP3A4 metabolites monitored: 1-hydroxy midazolam, 6-β-hydroxy testosterone
Method: as §1

[1] = Microsomal stability, mouse liver microsomes; type: in vitro ADME; details: 0.5 mg/mL protein, read-out: Microsomal stability (T1/2 min) Mouse
Method: (§2) Intrinsic clearance studies are performed individually with mouse, rat and human liver microsomes at 0.5 mg/mL protein concentration. Briefly, for protein concentration 0.5 mg/mL assay, liver microsomal protein (12.5 uL), NAPDH (50 uL) and phosphate buffer (435 uL) are co-incubated (pre-incubation) in a 96-well deep well plate in an orbital incubator (10 min, 37° C.). Reactions are initiated by the addition of 2.5 uL of test item working stock solution (100 uM). Aliquots (50 uL) are withdrawn from the reaction tube at 0, 5, 10, 20 and 30 minutes and the reaction is immediately terminated by transferring to a 96 deep well plate containing 50 uL of acetonitrile. Verapamil is used as a positive control in mouse, rat and human liver microsomes. To the quenched samples internal standard is added and vortex mixed followed by centrifugation at 4000 rpm for 10 minutes and an aliquot of supernatant is taken for LC-MS/MS analysis. Samples are analyzed by a suitable fit-for-purpose multiple reaction monitoring method developed on LC-MS/MS using and API 4000 mass spectrometer to estimate the area ratio (analyte peak area/internal standard peak area).

[2] = Microsomal stability, rat liver microsomes; type: in vitro ADME; details: 0.5 mg/mL protein, read-out: Microsomal stability (T1/2 min) Rat
Method: as §2

[3] = Microsomal stability, human liver microsomes; type: in vitro ADME; details: 0.5 mg/mL protein, read-out: Microsomal stability (T1/2 min) Human
Method: as §2

hERG = hERG (Homo sapiens (Human), UniProt Q12809); experiment: hERG inhibition, patch clamp (Port-a-Patch) on HEK cells stably transfected with the hERG clone, IKr current; type: cell-based; details: concentrations tested 1, 3, 10 and 30 μM
Method: (§3) HEK cells stably transfected with the hERG clone are maintained at 37±2° C. in a 5% CO2 incubator. The cells are initially revived and grown in DMEM/F12+GlutaMAX-I medium supplemented with 9% fetal bovine serum (FBS) and antibiotics (Penicillin 100 IU/mL Streptomycin 100 μg/mL) (complete medium). Furthermore, the cells are continuously maintained and passaged in complete media in addition to the appropriate concentration of selection antibiotic (Geneticin (G418) 200 μg/mL) (Selection media). The cells are sub cultured every 2-3 days and medium is changed with complete medium at least a day before the experiment.
(§4) The cells are harvested on the day of experiment, dislodged and suspended in sterile filtered external solution (NaCl 140 mM, KCl 4 mM, MgCl2 1 mM, CaCl2 2 mM, D-Glucose monohydrate 5 mM, Hepes/NaOH 10 mM, pH 7.4, Osmolarity:298+/−5 mOsmol).
(§5) The NPC®-1 chip of the Port-a-Patch® is filled with 5 μL of internal solution (KCl 50 mM, NaCl 10 mM, KFl 60 mM, EGTA 20 mM, Hepes/KOH 10 mM, pH 7.2, Osmolarity: 285+/−5 mOsmol) and it is screwed onto the chip holder. The Faraday cage is then fixed on the chip holder, such that the external electrode is placed near to the chip aperture. 5 μL of external solution is added to the center of the aperture so that the external electrode is also in contact with the solution.
(§6) The experiment is be initiated. […] The suction automatically attracts a cell to the aperture, resulting in an increase in the chip resistance. When the cell is captured and the set threshold for the resistance is reached, the software recognizes this increase in resistance and proceeds to the next step of the sealing procedure. 20 μL of seal enhancer solution (NaCl 80 mM, KCl 4 mM, MgCl2 10 mM, CaCl2) 35 mM, Hepes (Na+salt)/HCl pH 7.4, Osmolarity: 298+/−5 mOsmol) is added 2-3 times. When the threshold resistance is reached, Patch Control automatically moves to the step of improving the seal. When the desirable resistance (Rpip) is reached, whole cell mode is attained and maintained.
(§7) Finally, hERG protocol is selected to run the experiment. The seal enhancer solution is replaced with 20 μL external solution after 2-4 rinses and then the test item is added (from lower to higher concentration) and checked for current inhibition. All the experiments are performed at ambient temperature (22-25° C.).
(§8) A schematic diagram (FIG. 3) of the Pulse protocol: Cells are stimulated every 10 seconds using the following protocol. The holding potential, sweep intervals and the depolarization/repolarization potentials are furnished in the table below.
(§9) Once the stable current is attained (at least 2-5 minutes) vehicle control is added and the current measured till the stable current is achieved. 3-5 consecutive data points from the last stable current phase are considered for further analysis. […] The system performs on-line analysis for several parameters which include functions that acquire data from traces and functions that perform calculations on the results of other functions.

hERG (IKr current) = hERG (IKr current) (Homo sapiens (Human), UniProt Q12809); experiment: as above; type: cell-based; details: human, HEK cells stably transfected with the hERG clone, pH 7.4, IKr current
Method: as §3, §4, §5, §6, §7, §8, §9

[4] = CYP3A4^a, read-out: CYP IC50 uM CYP3A4^a
[5] = read-out: Percent Inhibition Mean (%)
[6] = read-out: Percent Inhibition Trial I
[7] = read-out: Percent Inhibition Trial II

CYP2D6, sequence (P10635 whole entry): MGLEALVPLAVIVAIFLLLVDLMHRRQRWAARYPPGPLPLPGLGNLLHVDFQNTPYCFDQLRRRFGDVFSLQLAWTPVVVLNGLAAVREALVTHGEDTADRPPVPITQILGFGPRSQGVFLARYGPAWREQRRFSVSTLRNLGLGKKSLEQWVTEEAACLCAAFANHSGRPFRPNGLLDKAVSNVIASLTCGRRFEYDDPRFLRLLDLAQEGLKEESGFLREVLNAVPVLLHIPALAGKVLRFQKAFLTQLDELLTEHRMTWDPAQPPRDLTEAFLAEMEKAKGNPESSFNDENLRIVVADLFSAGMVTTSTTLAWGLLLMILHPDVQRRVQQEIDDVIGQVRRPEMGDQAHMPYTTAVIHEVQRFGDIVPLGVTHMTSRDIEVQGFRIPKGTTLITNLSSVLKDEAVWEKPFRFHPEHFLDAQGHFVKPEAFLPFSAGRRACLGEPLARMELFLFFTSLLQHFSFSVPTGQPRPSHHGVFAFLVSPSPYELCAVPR
CYP1A2, sequence (P05177 whole entry): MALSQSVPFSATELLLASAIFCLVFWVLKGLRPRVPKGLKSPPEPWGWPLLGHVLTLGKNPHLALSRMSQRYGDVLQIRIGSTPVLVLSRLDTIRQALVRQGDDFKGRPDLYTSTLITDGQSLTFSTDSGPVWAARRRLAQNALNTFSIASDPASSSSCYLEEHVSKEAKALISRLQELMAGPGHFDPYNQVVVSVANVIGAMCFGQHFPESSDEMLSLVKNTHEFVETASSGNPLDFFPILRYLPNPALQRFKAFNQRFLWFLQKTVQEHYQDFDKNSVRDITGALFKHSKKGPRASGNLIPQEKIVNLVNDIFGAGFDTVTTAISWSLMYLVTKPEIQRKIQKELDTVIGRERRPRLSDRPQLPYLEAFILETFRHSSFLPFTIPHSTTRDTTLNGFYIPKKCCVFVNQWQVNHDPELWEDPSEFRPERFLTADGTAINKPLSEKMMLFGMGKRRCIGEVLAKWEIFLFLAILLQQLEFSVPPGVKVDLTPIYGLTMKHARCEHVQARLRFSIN
hERG (IKr current), sequence (Q12809 whole entry): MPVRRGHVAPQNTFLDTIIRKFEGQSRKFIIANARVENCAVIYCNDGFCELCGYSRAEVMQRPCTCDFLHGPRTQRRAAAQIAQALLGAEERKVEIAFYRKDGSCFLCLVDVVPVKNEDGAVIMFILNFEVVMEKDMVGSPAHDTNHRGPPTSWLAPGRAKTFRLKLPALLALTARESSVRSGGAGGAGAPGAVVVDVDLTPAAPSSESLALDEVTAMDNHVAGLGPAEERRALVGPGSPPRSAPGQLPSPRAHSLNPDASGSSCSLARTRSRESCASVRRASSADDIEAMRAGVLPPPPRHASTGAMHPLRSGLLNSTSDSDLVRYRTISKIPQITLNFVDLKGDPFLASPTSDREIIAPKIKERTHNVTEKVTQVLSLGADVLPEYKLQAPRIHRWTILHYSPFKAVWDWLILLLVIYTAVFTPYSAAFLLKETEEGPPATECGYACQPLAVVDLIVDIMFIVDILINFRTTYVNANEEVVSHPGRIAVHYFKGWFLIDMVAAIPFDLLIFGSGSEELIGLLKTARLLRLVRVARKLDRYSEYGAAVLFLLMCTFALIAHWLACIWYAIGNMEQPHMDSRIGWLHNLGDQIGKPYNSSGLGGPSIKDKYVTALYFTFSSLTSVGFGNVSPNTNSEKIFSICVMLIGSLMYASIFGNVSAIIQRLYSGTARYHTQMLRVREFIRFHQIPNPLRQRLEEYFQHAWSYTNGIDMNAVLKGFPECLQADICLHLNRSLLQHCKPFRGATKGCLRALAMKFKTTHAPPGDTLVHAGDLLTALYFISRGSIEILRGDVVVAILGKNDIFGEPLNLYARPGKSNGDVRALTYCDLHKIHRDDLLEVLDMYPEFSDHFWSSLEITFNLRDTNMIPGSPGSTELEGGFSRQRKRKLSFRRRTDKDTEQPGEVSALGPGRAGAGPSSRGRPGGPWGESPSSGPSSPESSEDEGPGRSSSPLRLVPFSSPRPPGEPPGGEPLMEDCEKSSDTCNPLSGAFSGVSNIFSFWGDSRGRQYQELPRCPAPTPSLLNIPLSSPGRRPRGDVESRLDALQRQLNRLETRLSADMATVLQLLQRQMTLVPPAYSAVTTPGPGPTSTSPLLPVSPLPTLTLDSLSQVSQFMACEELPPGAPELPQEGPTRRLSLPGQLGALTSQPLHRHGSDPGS
hERG, sequence (Q12809 whole entry): as above
CYP2C9, sequence (P11712 whole entry): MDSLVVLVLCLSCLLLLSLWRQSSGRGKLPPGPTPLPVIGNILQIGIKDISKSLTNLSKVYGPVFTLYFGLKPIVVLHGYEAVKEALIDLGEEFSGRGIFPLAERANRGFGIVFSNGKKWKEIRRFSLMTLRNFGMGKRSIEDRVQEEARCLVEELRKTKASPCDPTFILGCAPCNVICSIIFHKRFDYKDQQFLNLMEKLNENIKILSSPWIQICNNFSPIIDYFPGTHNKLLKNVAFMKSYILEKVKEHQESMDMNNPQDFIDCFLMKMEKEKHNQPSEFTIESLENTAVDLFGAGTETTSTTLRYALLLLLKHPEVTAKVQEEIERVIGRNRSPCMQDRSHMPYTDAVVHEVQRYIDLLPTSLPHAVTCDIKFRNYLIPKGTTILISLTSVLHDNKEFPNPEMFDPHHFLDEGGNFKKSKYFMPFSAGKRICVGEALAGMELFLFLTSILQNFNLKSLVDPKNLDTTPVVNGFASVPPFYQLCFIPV
CYP2C19, sequence (P33261 whole entry): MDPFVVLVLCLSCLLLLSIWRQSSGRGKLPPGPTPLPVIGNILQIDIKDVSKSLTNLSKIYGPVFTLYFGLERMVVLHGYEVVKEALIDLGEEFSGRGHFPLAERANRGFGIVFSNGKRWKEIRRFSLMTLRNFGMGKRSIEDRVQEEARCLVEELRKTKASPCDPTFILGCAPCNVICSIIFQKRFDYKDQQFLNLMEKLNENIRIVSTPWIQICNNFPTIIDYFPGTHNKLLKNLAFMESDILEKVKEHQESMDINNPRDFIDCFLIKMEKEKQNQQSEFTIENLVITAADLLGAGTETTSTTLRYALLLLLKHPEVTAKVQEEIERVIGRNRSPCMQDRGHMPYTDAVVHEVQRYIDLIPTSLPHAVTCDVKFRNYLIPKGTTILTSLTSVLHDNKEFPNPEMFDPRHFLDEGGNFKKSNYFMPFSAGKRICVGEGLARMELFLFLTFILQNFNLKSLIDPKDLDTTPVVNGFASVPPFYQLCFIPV
CYP3A4, sequence (P08684 whole entry): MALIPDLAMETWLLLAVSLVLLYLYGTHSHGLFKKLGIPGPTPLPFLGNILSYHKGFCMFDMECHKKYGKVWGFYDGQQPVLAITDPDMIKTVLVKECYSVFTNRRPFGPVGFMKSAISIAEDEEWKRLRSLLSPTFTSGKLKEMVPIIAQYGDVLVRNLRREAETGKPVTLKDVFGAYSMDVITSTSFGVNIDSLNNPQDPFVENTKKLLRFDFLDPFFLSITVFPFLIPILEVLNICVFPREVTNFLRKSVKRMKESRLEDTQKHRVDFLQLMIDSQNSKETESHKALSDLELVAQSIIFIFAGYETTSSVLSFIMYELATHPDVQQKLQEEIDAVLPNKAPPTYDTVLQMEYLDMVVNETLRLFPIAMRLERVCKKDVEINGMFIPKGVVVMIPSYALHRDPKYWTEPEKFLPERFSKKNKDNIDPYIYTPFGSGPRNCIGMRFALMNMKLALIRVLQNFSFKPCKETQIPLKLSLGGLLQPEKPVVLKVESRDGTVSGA

SMILES	IC50 (CYP1A2) [µM]	IC50 (CYP2C9) [µM]	IC50 (CYP2C19) [µM]	IC50 (CYP2D6) [µM]	IC50 (CYP3A4; [4]) [µM]	IC50 (CYP3A4; read-out: CYP IC50 uM CYP3A4^b) [µM]	half-life at 0.5 µM [1] [min]	half-life at 0.5 µM [2] [min]	half-life at 0.5 µM [3] [min]	IC50 (hERG) [µM]	inhibition at 1 µM (hERG (IKr current); [5]) [%]	inhibition at 1 µM (hERG (IKr current); [6]) [%]	inhibition at 1 µM (hERG (IKr current); [7]) [%]	inhibition at 3 µM (hERG (IKr current); [5]) [%]	inhibition at 3 µM (hERG (IKr current); [6]) [%]	inhibition at 3 µM (hERG (IKr current); [7]) [%]	inhibition at 10 µM (hERG (IKr current); [5]) [%]	inhibition at 10 µM (hERG (IKr current); [6]) [%]	inhibition at 10 µM (hERG (IKr current); [7]) [%]	inhibition at 30 µM (hERG (IKr current); [5]) [%]	other results
O=C(c1ccncc1)C1CCCN(Cc2ccccc2)C1 (stereo not drawn) [IV-6]	20 to 50	5 to 20	≤ 5	≤ 5	≤ 5	5 to 20	< 10	< 10	10 to 30	44.6	2.37	0	4.74	0	0	0	10.2	7.16	13.1	35.5	inhibition at 30 µM (hERG (IKr current); [6]): 39.9%; inhibition at 30 µM (hERG (IKr current); [7]): 31.1%
O=C(c1ncccn1)C1CCCN(Cc2ccccc2)C1 (stereo not drawn) [IV-7]	> 50	> 50	> 50	5 to 20	> 50	> 50	≥ 30	10 to 30	≥ 30	73.2	0	0	0	0.73	1.46	0	1.99	3.44	0.54	21.6	inhibition at 30 µM (hERG (IKr current); [6]): 17.2%; inhibition at 30 µM (hERG (IKr current); [7]): 25.9%
O=C(c1ccc(Cl)cc1)C1CCCN(C(=O)c2ccccc2)C1 (stereo not drawn) [Compound V-4]	≤ 5	5 to 20	≤ 5	≤ 5	> 50	20 to 50	< 10	< 10	10 to 30	76	13.2	16.2	10.2	18.8	20.5	17	23.1	26.4	19.8	39.1	inhibition at 30 µM (hERG (IKr current); [6]): 39.5%; inhibition at 30 µM (hERG (IKr current); [7]): 38.7%
